The values that follow come from US20230026696A1, “TRPV4 RECEPTOR LIGANDS” (UNIVERSITY OF UTAH RESEARCH FOUNDATION, priority 2019, published 2023).

The target in one assay is T1, TRPV1 (Homo sapiens, UniProt Q8NER1).
T1 construct: expressed in transfected cells
Put plainly: Selectivity Ca2+ flux assay, TRPV1 stably overexpressed in human lung epithelial (BEAS-2B) cells. Type of assay: cell-based. The conditions noted are these: agonist nonivamide (5 μM). The protocol: (§1) To determine selectivity of the various test compounds for TRPV4, select compounds with activity in the TRPV4 fluorometric cell-based Ca^2+ flux assays were also tested for inhibition of human TRPA1 stably over-expressed in HEK-293 cells, TRPM8 stably over-expressed in HEK-293 cells, TRPV3 stably over-expressed in HEK-293 cells, and TRPV1 stably overexpressed in human lung epithelial (BEAS-2B) cells. The assays were conducted substantially as described above for HEK-293 cells that stably overexpress TRPV4, although for TRPV1, the BEAS-2B cells were maintained in LHC-9 media containing Geneticin (300 μg/mL) and were loaded with Fluo-4AM at room temperature. The agonist for TRPA1 was 2,4-ditert butylphenol (50 μM), for TRPM8 was icilin (50 μM), for TRPV3 was carvacrol (300 μM), and for TRPV1 was nonivamide (5 μM). All other aspects of the assay described above were the same.

For another assay, the target named is T2, human TRPA1 (Homo sapiens, UniProt O75762).
T2 construct: expressed in transfected cells
T2 sequence (O75762 whole entry): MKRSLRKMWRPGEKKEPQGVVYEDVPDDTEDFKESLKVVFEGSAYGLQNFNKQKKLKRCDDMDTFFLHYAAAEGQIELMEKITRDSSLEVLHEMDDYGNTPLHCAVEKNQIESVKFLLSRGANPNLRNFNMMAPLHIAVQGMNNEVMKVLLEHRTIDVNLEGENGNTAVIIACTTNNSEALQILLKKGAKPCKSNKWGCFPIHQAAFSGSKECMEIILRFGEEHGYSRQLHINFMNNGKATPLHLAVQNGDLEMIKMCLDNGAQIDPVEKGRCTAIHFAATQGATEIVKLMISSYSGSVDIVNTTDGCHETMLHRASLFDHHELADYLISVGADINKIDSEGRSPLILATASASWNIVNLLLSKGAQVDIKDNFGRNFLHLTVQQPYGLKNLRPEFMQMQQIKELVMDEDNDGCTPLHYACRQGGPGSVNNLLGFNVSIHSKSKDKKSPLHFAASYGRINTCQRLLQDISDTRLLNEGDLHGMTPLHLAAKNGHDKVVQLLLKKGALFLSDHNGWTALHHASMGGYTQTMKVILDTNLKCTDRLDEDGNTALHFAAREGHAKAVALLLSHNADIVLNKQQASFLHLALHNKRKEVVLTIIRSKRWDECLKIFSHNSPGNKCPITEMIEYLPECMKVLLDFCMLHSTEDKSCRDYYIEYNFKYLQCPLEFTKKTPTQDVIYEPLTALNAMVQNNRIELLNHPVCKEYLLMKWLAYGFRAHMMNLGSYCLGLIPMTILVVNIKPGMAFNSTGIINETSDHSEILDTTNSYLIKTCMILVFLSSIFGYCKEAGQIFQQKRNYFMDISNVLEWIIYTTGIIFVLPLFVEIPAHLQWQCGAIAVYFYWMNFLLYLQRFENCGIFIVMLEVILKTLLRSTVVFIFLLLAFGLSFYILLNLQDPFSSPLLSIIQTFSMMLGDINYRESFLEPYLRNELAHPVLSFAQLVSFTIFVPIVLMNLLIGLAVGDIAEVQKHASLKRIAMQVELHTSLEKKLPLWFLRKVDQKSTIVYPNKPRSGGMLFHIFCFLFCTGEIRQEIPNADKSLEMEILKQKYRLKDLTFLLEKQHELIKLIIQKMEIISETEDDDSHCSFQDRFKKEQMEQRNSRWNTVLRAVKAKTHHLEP
Put plainly: Selectivity Ca2+ flux assay, TRPA1 stably over-expressed in HEK-293 cells. It counts as cell-based. The following applies: agonist 2,4-ditert butylphenol (50 μM). The method, then: as §1

The target in the next assay is T3, human TRPV4 (Homo sapiens, UniProt Q9HBA0).
T3 construct: expressed in transfected cells
T3 sequence (Q9HBA0 whole entry): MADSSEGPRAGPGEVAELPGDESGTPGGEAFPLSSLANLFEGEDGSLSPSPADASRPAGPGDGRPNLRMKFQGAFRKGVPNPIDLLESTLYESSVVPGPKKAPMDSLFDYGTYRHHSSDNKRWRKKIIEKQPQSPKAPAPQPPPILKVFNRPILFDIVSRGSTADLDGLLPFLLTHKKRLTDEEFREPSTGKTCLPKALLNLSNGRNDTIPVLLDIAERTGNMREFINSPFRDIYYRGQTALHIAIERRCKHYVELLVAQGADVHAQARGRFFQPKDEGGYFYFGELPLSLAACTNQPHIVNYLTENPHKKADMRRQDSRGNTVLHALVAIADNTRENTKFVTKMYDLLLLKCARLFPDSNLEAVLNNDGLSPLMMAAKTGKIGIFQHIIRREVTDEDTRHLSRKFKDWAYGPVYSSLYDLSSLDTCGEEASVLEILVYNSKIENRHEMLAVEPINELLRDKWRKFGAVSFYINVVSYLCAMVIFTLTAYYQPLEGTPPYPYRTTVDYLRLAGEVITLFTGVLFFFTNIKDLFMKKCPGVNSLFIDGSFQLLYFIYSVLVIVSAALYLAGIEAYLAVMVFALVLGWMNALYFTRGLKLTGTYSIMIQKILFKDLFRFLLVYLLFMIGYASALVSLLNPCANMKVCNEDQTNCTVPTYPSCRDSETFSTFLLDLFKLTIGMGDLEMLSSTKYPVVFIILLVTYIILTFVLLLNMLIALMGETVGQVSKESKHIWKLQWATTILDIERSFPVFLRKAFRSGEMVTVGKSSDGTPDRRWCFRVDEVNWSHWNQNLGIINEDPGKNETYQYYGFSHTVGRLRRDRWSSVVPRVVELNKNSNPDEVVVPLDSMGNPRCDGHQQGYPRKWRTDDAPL
Put plainly: Fluorometric cell-based Ca2+ flux assay, HEK-293 cells stably overexpressing human TRPV4. The conditions noted are these: for IC50: HEK-293 stably overexpressing human TRPV4, agonist GSK1016790A 30 nM. Summed up: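 HEK-293 cells stably overexpressing human TRPV4, Fluo 4-loaded, pre-incubated 30 min at 37° C with compound, then stimulated with 30 nM GSK1016790A (final). Max ΔF/s over 1 min, media-corrected, expressed relative to no-antagonist control; IC50 from ≥8 concentrations, ≥3 replicates.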

The next assay addresses T4, TRPM8 (Homo sapiens, UniProt Q7Z2W7).
T4 construct: expressed in transfected cells
Put plainly: Selectivity Ca2+ flux assay, TRPM8 stably over-expressed in HEK-293 cells. It counts as cell-based. The following applies: agonist icilin (50 μM). The method, then:
as §1

Another assay concerns the target T5, TRPV3 (Homo sapiens, UniProt Q8NET8).
T5 construct: expressed in transfected cells
T5 sequence (Q8NET8 1-790): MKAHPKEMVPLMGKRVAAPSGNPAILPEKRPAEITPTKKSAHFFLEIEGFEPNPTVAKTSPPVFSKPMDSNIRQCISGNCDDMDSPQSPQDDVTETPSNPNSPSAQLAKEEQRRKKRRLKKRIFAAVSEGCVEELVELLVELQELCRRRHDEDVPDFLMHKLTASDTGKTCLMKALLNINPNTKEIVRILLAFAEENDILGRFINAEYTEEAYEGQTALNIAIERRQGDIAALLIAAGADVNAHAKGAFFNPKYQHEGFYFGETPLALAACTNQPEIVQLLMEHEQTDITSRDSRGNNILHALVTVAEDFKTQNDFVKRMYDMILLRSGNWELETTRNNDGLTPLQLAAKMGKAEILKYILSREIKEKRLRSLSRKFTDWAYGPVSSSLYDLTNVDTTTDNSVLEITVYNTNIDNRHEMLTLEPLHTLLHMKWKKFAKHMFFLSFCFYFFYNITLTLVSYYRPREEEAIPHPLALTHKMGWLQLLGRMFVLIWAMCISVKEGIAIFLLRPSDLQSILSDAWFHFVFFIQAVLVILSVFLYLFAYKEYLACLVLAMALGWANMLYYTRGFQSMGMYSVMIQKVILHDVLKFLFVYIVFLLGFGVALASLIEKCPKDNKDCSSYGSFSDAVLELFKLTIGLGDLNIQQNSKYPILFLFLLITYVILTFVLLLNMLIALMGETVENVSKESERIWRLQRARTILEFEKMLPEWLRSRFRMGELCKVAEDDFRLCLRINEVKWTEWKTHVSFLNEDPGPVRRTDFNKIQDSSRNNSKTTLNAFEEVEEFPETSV
Put plainly: Selectivity Ca2+ flux assay, TRPV3 stably over-expressed in HEK-293 cells. It counts as cell-based. The conditions noted are these: agonist carvacrol (300 μM). The protocol: as §1

Assay [1] deals with intraocular pressure (IOP). Put plainly: In vivo tonometric IOP assay in microbead mouse model of ocular hypertension.
For assay [2], the system named is intraocular pressure (IOP). The following applies: applied at 0.3-1.0 mM; Ryskamp et al., Sci Rep 2016; cited from earlier work.
The subject of assay [3] is intraocular pressure (IOP). The conditions noted are these: OAG-affected dogs; literature; cited from earlier work.
Assay [4] has as its system intraocular pressure (IOP). Put plainly: In vivo tonometric IOP assay in microbead mouse model of ocular hypertension. The conditions noted are these: FIG. 2 right panel; P<0.01 / P<0.001, two-way ANOVA. The method, then: FIG. 1 is a graph showing the effect that two concentrations of topical compound 11 (0.01% and 0.1%), 0.5% timolol, and control PBS had on IOP in the microbead (MB) mouse model of ocular hypertension (N=3 separate experiments, with 7-10 mice per experimental cohort). Error bars=±S.E.M. Ocular hypertension in the mouse model of primary open angle glaucoma (POAG) was induced with intracameral injection of polystyrene microbeads. Antagonist stock solutions (10 mM) were prepared in DMSO, the final concentrations were made in PBS diluted to <0.0001% DMSO.
FIG. 2 is a bar chart showing the cumulative data for pre-IOP elevation cohorts of mouse eyes (N≥3 separate experiments, with 7-10 mice per experimental cohort). Left panel: the IOP data are plotted as % of the control value of the timolol-treated eye cohort. Middle panel: MB injection elevated IOP in all experimental cohorts.
A tonometric assay was used to measured IOP changes in mice models of ocular hypertension over a period of weeks following topical application of the compounds.
To prepare the mice models of ocular hypertension, mice were anesthetized with an intraperitoneal (IP) injection of ketamine/xylazine (90 mg/10 mg/kg of body weight). Eye drops of 0.5% proparacaine hydrochloride with 1% tropicamide ophthalmic solution (Bausch & Lomb) were applied to numb and dilate the eyes of the mice. IOP was elevated in the ipsilateral eye by injecting 2 μl of polystyrene microbeads (7.8 μm FluoSpheres; Bangs Laboratories) with a Hamilton syringe into the anterior chamber over 60 seconds. The contralateral eye was injected with phosphate buffered saline (PBS).
A rebound tonometer was used to measure IOP at 1, 2, 6 and 10 hours post-injection after topical administration of Compounds 11 and 52 and timolol, a known medication for treatment of IOP associated with ocular hypertension and glaucoma. The IOP was determined from the means of 10 to 20 readings, following the protocol described in Ryskamp et al., Sci Rep 6:30583, 2016. […]

Counter-ions that a name gives are not always drawn.

T4 sequence (Q7Z2W7 whole entry): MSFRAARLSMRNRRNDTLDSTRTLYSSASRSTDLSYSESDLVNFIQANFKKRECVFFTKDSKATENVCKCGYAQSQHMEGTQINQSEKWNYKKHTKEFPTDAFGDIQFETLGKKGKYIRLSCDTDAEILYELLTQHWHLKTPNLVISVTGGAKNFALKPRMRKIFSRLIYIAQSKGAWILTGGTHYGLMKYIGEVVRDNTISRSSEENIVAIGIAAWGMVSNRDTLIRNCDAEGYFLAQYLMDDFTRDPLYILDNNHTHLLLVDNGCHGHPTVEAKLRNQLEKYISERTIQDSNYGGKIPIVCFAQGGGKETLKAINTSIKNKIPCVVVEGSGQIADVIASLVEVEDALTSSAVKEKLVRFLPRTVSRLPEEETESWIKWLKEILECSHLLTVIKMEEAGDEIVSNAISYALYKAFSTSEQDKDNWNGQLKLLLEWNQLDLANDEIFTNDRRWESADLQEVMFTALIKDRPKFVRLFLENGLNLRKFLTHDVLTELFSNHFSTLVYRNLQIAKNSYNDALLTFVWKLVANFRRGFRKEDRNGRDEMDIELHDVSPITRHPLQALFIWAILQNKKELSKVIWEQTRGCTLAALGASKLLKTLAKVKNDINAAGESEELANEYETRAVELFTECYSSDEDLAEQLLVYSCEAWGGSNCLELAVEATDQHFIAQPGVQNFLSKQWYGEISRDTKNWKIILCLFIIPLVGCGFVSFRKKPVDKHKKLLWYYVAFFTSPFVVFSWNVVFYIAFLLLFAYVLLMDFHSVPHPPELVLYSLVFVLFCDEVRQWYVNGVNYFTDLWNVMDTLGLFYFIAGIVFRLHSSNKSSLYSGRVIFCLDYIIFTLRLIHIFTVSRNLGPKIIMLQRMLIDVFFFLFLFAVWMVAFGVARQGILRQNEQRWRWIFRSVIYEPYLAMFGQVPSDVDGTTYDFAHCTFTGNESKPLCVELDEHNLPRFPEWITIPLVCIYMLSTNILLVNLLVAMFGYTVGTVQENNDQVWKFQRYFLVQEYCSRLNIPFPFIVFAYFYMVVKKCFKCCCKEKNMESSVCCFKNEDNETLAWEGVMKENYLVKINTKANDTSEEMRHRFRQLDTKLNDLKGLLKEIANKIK
T1 sequence (Q8NER1 whole entry): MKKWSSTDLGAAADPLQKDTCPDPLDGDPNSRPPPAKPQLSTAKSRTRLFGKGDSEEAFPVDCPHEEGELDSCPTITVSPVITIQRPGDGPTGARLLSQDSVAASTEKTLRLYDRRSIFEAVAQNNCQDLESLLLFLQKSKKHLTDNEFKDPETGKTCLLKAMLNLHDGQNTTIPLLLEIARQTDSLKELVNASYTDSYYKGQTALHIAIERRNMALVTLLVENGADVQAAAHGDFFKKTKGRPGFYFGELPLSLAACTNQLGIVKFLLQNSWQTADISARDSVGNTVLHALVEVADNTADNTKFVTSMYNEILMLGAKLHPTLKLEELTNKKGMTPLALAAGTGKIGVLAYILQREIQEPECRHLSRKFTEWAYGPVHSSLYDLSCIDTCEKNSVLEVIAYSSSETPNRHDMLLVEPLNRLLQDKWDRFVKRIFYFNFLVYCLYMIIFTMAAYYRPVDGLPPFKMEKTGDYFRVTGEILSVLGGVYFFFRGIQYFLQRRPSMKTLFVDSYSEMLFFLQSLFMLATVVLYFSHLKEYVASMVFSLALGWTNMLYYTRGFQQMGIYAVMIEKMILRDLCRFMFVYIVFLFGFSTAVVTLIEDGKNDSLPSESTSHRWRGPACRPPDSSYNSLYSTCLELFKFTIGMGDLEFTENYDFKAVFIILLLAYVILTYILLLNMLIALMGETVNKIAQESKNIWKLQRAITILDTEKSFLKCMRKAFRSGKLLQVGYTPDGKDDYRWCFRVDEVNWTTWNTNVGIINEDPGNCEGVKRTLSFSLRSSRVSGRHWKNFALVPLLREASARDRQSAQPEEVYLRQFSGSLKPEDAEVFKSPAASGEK

Turning to `CNCC1(COc2ccc(C#N)c(F)c2)CN(S(=O)(=O)c2ccc(Cl)cc2Cl)C1` [Compound 16, 4-((1-((2,4-Dichlorophenyl)sulfonyl)-3-((methylamino)methyl)azetidin-3-yl)methoxy)-2-fluorobenzonitrile hydrochloride], the IC50 at TRPV1 is 6 µM; at human TRPA1 it was 20.7 µM; at human TRPV4, 0.0006 µM; on TRPM8 it was 17.8 µM; on TRPV3, over 100 µM. Also, on human TRPV4 (comparison of IC50 values), the “selectivity for TRPV4 versus TRPA1, TRPM8, TRPV3 and TRPV1” value is recorded as “substantially more selective for TRPV4”.
Regarding `N#Cc1ccc(OCC2(CNCCO)CN(S(=O)(=O)c3ccc(Cl)cc3Cl)C2)cc1F` [Compound 17, 4-((1-((2,4-Dichlorophenyl)sulfonyl)-3-(((2-hydroxyethyl)amino)methyl)azetidin-3-yl)methoxy)-2-fluorobenzonitrile], the half-maximal inhibitory concentration (IC50) was 5.3 µM at TRPV1; over 35.5 µM on human TRPA1; 0.0002 to 0.0006 µM at human TRPV4; 25.4 µM at TRPM8; over 50 µM on TRPV3.
As to `N#Cc1ccc(OCC2(CNC3CCOCC3)CN(S(=O)(=O)c3ccccc3C#N)C2)cc1F` [Compound 116, 4-((1-((2-Cyanophenyl)sulfonyl)-3-(((tetrahydro-2H-pyran-4-yl)amino)methyl)azetidin-3-yl)methoxy)-2-fluorobenzonitrile], the IC50 on human TRPV4 was determined as 0.00041 µM.
Consider `C[C@H](O)CNCC1(COc2ccc(C#N)c(F)c2)CN(S(=O)(=O)c2ccccc2C#N)C1` [Compound 117, (S)-4-((1-((2-Cyanophenyl)sulfonyl)-3-(((2-hydroxypropyl)amino)methyl)azetidin-3-yl)methoxy)-2-fluorobenzonitrile], for which the IC50 on human TRPV4 came to 0.0016 µM.
For `Cc1c(C(=O)Nc2cccc(C(F)(F)F)c2)cc(-c2ccccc2)n1CCCN1CCOCC1` [HC067047, reference compound], the “IOP levels in MB-treated eyes, intraperitoneal injection” value in assay [1] (FIG. 2 right panel, intraperitoneal) was “significantly lowered IOP levels”. Besides, in [2], the “IOP in hypertensive mouse eyes” value was “lowered IOP”.
Regarding `CCN[C@H]1C[C@H](C)S(=O)(=O)c2sc(S(N)(=O)=O)cc21` [dorzolamide HCl], the IOP lowering in [3] is given as 3.8-5.0 mm Hg.
`CC(C)(C)NC[C@H](O)COc1nsnc1N1CCOCC1` [timolol, reference compound]: the “IOP after topical administration” value in assay [1] (mouse model of ocular hypertension, compounds 1 μM and 10 μM, timolol 0.5%, FIG. 1) is recorded as “lowered the IOP”. In addition, in assay [1] (mouse model of ocular hypertension, topical, compounds 1 μM and 10 μM, timolol 0.5%), the “protection of RGCs” value is recorded as “protected RGCs”. The “IOP levels in MB-treated eyes, topical application” value in assay [4] is listed as “significantly lowered IOP levels”.
